# Measured values as given in PubChem BioAssay AID602239 (National Center for Advancing Translational Sciences (NCATS), 2012).
# System: mouse liver microsomes with NADPH, LC-MS/MS
# Test: qHTS for Activators of Human alpha-Glucosidase as a Potential Chaperone Treatment of Pompe Disease: Metabolic Stability in presence of NADPH
# Settings: at 5 µM; active compounds read high (more stable)
# Description: Alpha-glucosidase is responsible for hydrolysis of terminal, non-reducing 1,4-linked alpha-D-glucose residues with release of alpha-D-glucose. It is a lysosomal hydrolase that is required for the degradation of a small percentage (1-3%) of cellular glycogen in human. Deficiency of this enzyme results in glycogen-storage disease type II (GSDII), also referred to as Pompe disease, an autosomal recessive disorder. Structurally normal glycogen is accumulated in lysosomes and cytoplasm in affected patients, primarily in muscle tissues. Excessive glycogen storage within lysosomes may interrupt normal functioning of other organelles and leads to cellular injury. In turn, this leads to enlargement and dysfunction of the entire organ involved (eg, cardiomyopathy and muscle weakness). It has reported that the improper folding and trafficking of alpha-glucosidase resulting from the genetic mutations may account for a significant number of Pompe patients. […] We optimized this alpha-glucosidase assay in 1536-well plate format for identifying the novel small molecule inhibitors with the structures other than the sugar analogs in order to develop the new pharmacological chaperones. Mouse liver microsomes are created through broken up endoplasmic reticulum from mouse liver. These liver microsomes contain many drug metabolizing enzymes, such as Cytochome P-450s and flavin-containing monooxygenases. […] NIH Chemical Genomics Center [NCGC] NIH Molecular Libraries Probe Production Centers Network [MLPCN] MLPCN Grant: MH084841 Assay Submitter (PI): Wei Zheng
# 5uM of compound is incubated with mouse liver microsome; the reference compounds are verapamil and warfarin. Compounds are incubated and samples are analyzed with LC-MS/MS.
row,SMILES,percent remaining (higher = more stable) [%]
1,CCCN1CNc2c(c(=O)[nH]c(=S)n2Cc2ccc(OC)c(OC)c2)C1,63
2,CCCN1CNc2c(c(=O)[nH]c(=S)n2CCc2ccc(OC)c(OC)c2)C1,4
3,CCCN1CNc2c(c(=O)[nH]c(=S)n2CCc2cccc(Cl)c2Cl)C1,2
